Test results from patent US6342213B1, “Methods for treating non-suturable wounds by use of cyanoacrylate adhesives” (MedLogic Global Corporation, priority 1992, dated 2002).

What was measured:
[1] = test system: human skin tissue; experiment: Bonding of human skin tissue, histotoxicity/cytotoxicity
[2] = used as suture supplements or internally; site of application; cited from earlier work

SMILES: C=C(C#N)C(=O)OCCCC [n-butyl cyanoacrylate, n-butyl-2-cyanoacrylate]
- Histotoxicity or cytotoxicity on bonding human skin tissue [1]: without causing histoxicity or cytotoxicity
- Time after application at which polymeric residue was still observed by histological examination [2]: ≤ 12 months
